Measured values: US20170027897A1, “mTORC1 MODULATION BY AMINO ACIDS AND USES THEREOF” (WHITEHEAD INSTITUTE FOR BIOMEDICAL RESEARCH, priority 2013, published 2017)

Experiments:
[1] = system: RagA^GTP/GTP neonates; assay: Survival, glucose homeostasis and autophagy of fasted RagA^GTP/GTP neonates; assay type: in vivo, mouse
Procedure: NS, not significant. […] FIG. 10G is a series of bar graphs illustrating the quantification of neonatal plasma amounts of branched-chain (BCAA) and essential amino acids at birth (left), after 10 h fasting (middle) and after 10 h fasting with rapamycin treatment (right) (n for +/+, G/+ and G/G, respectively: n=4, 5 and 4 for 0 h; n=4, 4 and 3 for 10 h; n=2, 5 and 3 for rapamycin; mean±s.d.). Values are expressed relative to RagA^+/+ amounts at each time point.

[2] = system: mTORC1; assay: mTORC1 activity in MEFs (immunoblotting); assay type: cell-based, mouse; details: AMPK activator treatment
Procedure: FIG. 16A is a bar graph illustrating the decrease in plasma amino acids in all 1 h fasted neonates. […] FIG. 16C is a western blot depicting the time course of mTORC1 and AMPK activity in AMPK-wt, AMPK-DKO, RagA^+/+ and RagA^GTP/GTP MEFs deprived of glucose for 0.5, 2 and 4 h. FIG. 16D is a western blot of whole cell lysates immunoblotted for the indicated proteins, showing control HEK-293T cells or those expressing RagB^GTP were deprived of growth factors, glucose, amino acids, or glucose and amino acids for 1 h and re-stimulated with glucose and/or amino acids for 10 min. FIG. 16E is a graph illustrating the quantification of the western blots on FIG. 12B and FIG. 16D. FIG. 16F is a western blot showing the effect of amino acid esters on mTORC1 activity in wt MEFs. FIG. 16G is a bar graph showing the quantification of amino acids in RagA^+/+ and RagA^GTP/GTP MEFs deprived of glucose (relative to un-starved controls). […]
Maintenance of mTORC1 activity requires the simultaneous presence of growth factors, amino acids, and glucose^1. […] In addition, AMPK activity, as monitored by acetyl-CoA carboxylase (ACC) phosphorylation, was induced to similar levels in glucose-deprived RagA^+/+ and RagA^GTP/GTP cells (FIG. 12B and FIG. 16C), but absent in AMPK-null cells (FIG. 12A).

[3] = system: mTORC1; assay: Amino acid starvation and re-stimulation of HEK-293T cells, phospho-S6K western blot; assay type: cell-based, human; details: whole-cell assays of mTORC1 activity; partly called preliminary evidence
Description: The work described herein determined which amino acids are most critical for signaling to the mTORC1 pathway in HEK-293T cells, the workhorse cell culture system to which we owe much of our understanding about amino acid sensing. The basic experimental paradigm consists of a 50-minute total amino acid starvation followed by a 10-minute stimulation with a customizable set of amino acids. […] The work described herein determined that that there may be one or more missing amino acids that, when added alongside Leu and Arg, could fully activate mTORC1.
To determine the identities of these missing amino acids, the inventors first stimulated cells with the set of essential or the set of nonessential amino acids. […] The inventors then tested triplet amino acid combinations comprised of Leu, Arg, and one additional essential amino acid. […] Cocktails of EAAs that omitted one amino acid at a time were prepared. […] Thus the necessity and sufficiency experiments yielded complementary results, converging on Leu, Arg, and Lys as key signals for mTORC1 activation in 293T cells.
The inventors have explored why this particular combination of amino acids has such synergistic effects on the mTORC1 pathway in 293T cells. Given that both Arg and Lys contain basic side chains, the inventors first wondered if this shared chemical property underlay their abilities to activate mTORC1.
Furthermore, the inventors continue to characterize structure-activity relationships using LRK derivatives with modifications on the carboxy terminus, the amino terminus, and/or the side chain in whole-cell and in vitro lysosomal assays of mTORC1 activity. The inventors first tested amino acid carboxyesters, whose enhanced ability to permeate membranes render them good candidates for lysosomal loading. Once inside the lysosome, amino acid esters are thought to undergo hydrolysis to yield their native counterparts. […] Knowledge of the chemical space around LRK can be used to develop probes for interrogating the LRK/protein(s) interaction interface for isolating and/or enriching the amino acid sensor(s) feeding into mTORC1.

[4] = system: mice, hindlimb immobilization model of muscle atrophy; assay: Hindlimb immobilization/recovery model of muscle atrophy, gastrocnemius mass; assay type: in vivo, mouse; details: left hindlimb immobilized 5 days, 5 days recovery; IP twice daily; rapamycin daily where indicated
Procedure: Mice were subjected to immobilization of the left hind limb for 5 days followed by a 5-day recovery period. Each mouse was injected intraperitoneally twice daily at 9 am and 6 pm during the whole immobilization/recovery periods with the indicated amino acid esters or vehicle control. Rapamycin or vehicle control was injected daily where indicated. Following completion of the study both the right and left gastrocnemius were removed and mass of each muscle was recorded. Percent recovery was calculated by comparing the mass of the left immobilized gastrocnemius to that of the contralateral control leg. Standard error is shown, n=5-6 per treatment.
The protocol of hindlimb immobilization involves casting of the rear left leg, resulting in atrophy of the gastrocnemius and soleus muscles. The rear right leg remains free, and serves as an internal control for gastrocnemius and soleus muscle mass.
The inventors performed an experiment where left hindlimbs were immobilized for 5 days, casts were removed, and a recovery period of 5 days continued until the study endpoint. Animals were injected with PBS as control, L ethyl ester, or LR ethyl esters twice daily. As in the previous experiment, the 1× doses of amino acids and their esters were calculated as 20% of the amount that an adult mouse eats in a 24 h period under ad libitum conditions. […]

[5] = cited from earlier work
[6] = system: mTORC1; assay: Assaying L, R, K analogs for mTORC1 modulation in whole cells (pS6K); assay type: cell-based, human
Procedure: Generally, to test analogs of L, R, and K, whole cells (e.g., HEK293) can be starved of all amino acids (using RPMI—aa) for a period of time (e.g., about 50 min), and then stimulated with a combination of L, R, or K and/or an analog of L, R, or K, and mTORC1 activity can be measured by phosphorylation of an mTORC1 substrate (e.g., S6K).
Below are exemplary conditions which can be used to assay analogs of leucine (e.g., photoleucine (photoLeu)) for their ability to activate or suppress mTORC1 activity.
4) RK+0.1× photoLeu 5) RK+0.5× photoLeu 6) RK+1× photoLeu 7) RK+10× photoLeu
9) LRK+0.1× photoLeu 10) LRK+0.5× photoLeu 11) LRK+1× photoLeu 12) LRK+10× photoLeu
Conditions 3-7 above test whether or not a leucine analog (e.g., photoLeu) can substitute for native Leu. […] Those skilled in the art will appreciate that conditions 3-7 above can be modified to assay other analogs, for example, by replacing RK with LK to assay R analogs or by replacing RK with LR to assay K analogs.
Conditions 8-12 above test whether or not a leucine analog (e.g., photoLeu) can compete against native Leu.
The concentration range of analogs used in the protocol set forth above was from about 0.1× to 10× (relative to RPMI), however, other concentrations may be used, as will be appreciated by the skilled artisan.

[7] = system: mTORC1; assay: Phosphorylated S6 in gastrocnemius muscle and liver of fasted rats after oral gavage or bolus IV injection; assay type: in vivo; details: summary of the rat studies
Procedure: FIGS. 23A, 23B, 23C and 23D depict the effect of administering various combinations of amino acids on levels of phosphorylated ribosomal protein S6 (pS6) in gastrocnemius muscle and liver. FIGS. 23A and 23B are bar graphs showing the fold increase in pS6/actin protein ratios in fasted rat gastrocnemius muscle (FIG. 23A) or liver (FIG. 23B) 30 and 60 minutes after administering amino acids via oral gavage. FIGS. 23C and 23D are bar graphs showing the fold increase in pS6/actin protein ratios in fasted rat gastrocnemius muscle (FIG. 23C) or liver (FIG. 23D) 30 and 60 minutes after administering amino acids via intravenous bolus injection.
Rats (n=3), fasted for 24 hours, were administered LRK or LCK via oral gavage or bolus IV injection and gastrocnemius muscle and liver was isolated 30 and 60 minutes later. Gastrocnemius muscle and liver was analyzed by SDS-PAGE followed by western blotting for levels of phosphorylated S6—a marker of mTORC1 activity.

[8] = Free amino acid levels in gastrocnemius muscle by LC-MS in fasted mice; assay type: in vivo, mouse; details: upon IP injection of citrulline containing formulations
[9] = system: mTORC1; assay: Muscle mTORC1 activation in immobilized and fasted mice after IP injection (phosphorylated S6, 4EBP1); assay type: in vivo, mouse; details: 18-hour fast, 30 minutes
Procedure: Mice were subjected to a model of hindlimb immobilization for 5 days in which the left hindlimb was casted as described in Example 2 in order to induce atrophy. Food and water were provided ad libitum. The night before day 6, food was withdrawn and the mice were subjected to an 18-hour overnight fast. […] Right (R; control) and left (L*; immobilized) gastrocnemius muscles were collected 30 minutes after treatment, snap frozen in liquid nitrogen, and processed for western blotting analysis with appropriate antibodies as previously described.

[10] = system: muscle protein synthesis; assay: Muscle protein synthetic rate in starved rats (flooding dose of radiolabeled phenylalanine); assay type: in vivo, rat; details: oral, 25% dose, 45 minutes, versus fasted vehicle control
Procedure: FIGS. 24A and 24B depict the effect of various amino acid combinations or a Leu-Arg-Lys tripeptide on phosphorylation of an mTORC1 substrate and the rate of muscle protein synthesis in starved rats.
To address this question, starved rats (n=8) were given oral doses of leucine, LR, LR(k), LC(k) and the LRK peptide and muscle protein synthetic rates were measured by administering a flooding dose of radiolabeled phenylalanine 10 minutes before sacrifice and quantifying uptake of radiolabeled phenylalanine.
Starved rats were dosed with amino acids benchmarked to either 5% of 25% of their daily intake of leucine. Rats were sacrificed 45 minutes after oral gavage and tissues and plasma was collected for mTORC1 signaling assessment, quantification of plasma leucine levels and measurement of protein synthetic rates.

Structure (SMILES): C[C@H](N)C(=O)O [alanine]
- glycaemia of fasted neonates after injection ([1]; all neonates regardless of genotype): provoked a significant increase in glycaemia

Structure (SMILES): NC(=O)c1ncn([C@@H]2O[C@H](CO)[C@@H](O)[C@H]2O)c1N [AICAR, aminoimidazole carboxamide ribonucleotide]
- mTORC1 activity in RagA^+/+ and RagA^GTP/GTP MEFs [2]: inhibited mTORC1 in cells of all genotypes

Structure (SMILES): COC(=O)[C@@H](N)CC(C)C [leucine methyl ester]
- mTORC1 stimulatory activity of derivative compared with the corresponding native amino acid [3]: modestly more stimulatory than the corresponding native amino acid

Structure (SMILES): CC(C)C[C@H](NC(=O)OCc1ccccc1)C(=O)O
- mTORC1 stimulatory activity of derivative compared with the corresponding native amino acid [3]: retains the ability to signal to mTORC1, albeit with lower potency than native Leu

Structure (SMILES): CCOC(=O)[C@@H](N)CC(C)C [leucine ethyl ester, L-leucine ethyl ester]
- mTORC1 stimulatory activity of derivative compared with the corresponding native amino acid [3]: modestly more stimulatory than the corresponding native amino acid
- relative gastrocnemius muscle mass compared to control (PBS injected mice) [4]: the only treatment that led to a significant increase in gastrocnemius muscle mass was LR ethyl ester treatment

Structure (SMILES): NCCCC[C@H](N)C(=O)O [lysine, L-lysine]
- bioavailability of orally ingested amino acid ([5]; Fry C S et al. 2011): superior to leucine and arginine

Structure (SMILES): CO[C@H]1C[C@@H]2CC[C@@H](C)[C@@](O)(O2)C(=O)C(=O)N2CCCC[C@H]2C(=O)O[C@H]([C@H](C)C[C@@H]2CC[C@@H](O)[C@H](OC)C2)CC(=O)[C@H](C)/C=C(\C)[C@@H](O)[C@@H](OC)C(=O)[C@H](C)C[C@H](C)/C=C/C=C/C=C/1C [rapamycin]
- time to death of fasted RagA^GTP/GTP neonates ([1]; treated at birth, untreated ˜14 h, p<0.01): ~21 h

Structure (SMILES): CC1(C[C@H](N)C(=O)O)N=N1 [photoLeu]
- mTORC1 stimulatory activity of derivative compared with the corresponding native amino acid [3]: retains some mTORC1 stimulatory activity
- suppression of pS6K signal caused by baseline LRK (antagonist test) ([6]; LRK + 0.1× to 10× analog (relative to RPMI)): not an antagonist or mTORC1-inactivating competitor against native Leu
- pS6K signal when analog substitutes for native Leu (agonist test) ([6]; RK + 0.1× to 10× analog (relative to RPMI)): pS6K signal increases

Structure (SMILES): COC(=O)[C@@H](N)CCCCN [lysine methyl ester]
- mTORC1 stimulatory activity of derivative compared with the corresponding native amino acid [3]: modestly more stimulatory than the corresponding native amino acid

Structure (SMILES): NC(=O)NCCC[C@H](N)C(=O)O [citrulline, L-Citrulline]
- mTORC1 activation at the level of muscle, as substitute for arginine [7]: adequate substitute for arginine for mTORC1 activation at the level of muscle
- mTORC1 activation in liver, as substitute for arginine [7]: less potent at activating mTORC1 in liver
- circulating citrulline converted to arginine by the kidneys ([5]; Bahri S. et al. 2013): over 80%
- conversion of citrulline to arginine [8]: little to no conversion of citrulline to arginine

Structure (SMILES): CCOC(=O)[C@@H](N)CCCCN [lysine ethyl ester]
- mTORC1 stimulatory activity of derivative compared with the corresponding native amino acid [3]: modestly more stimulatory than the corresponding native amino acid

Structure (SMILES): CC(C)C[C@H](N)C(=O)O [leucine, L-leucine]
- mTORC1 activity (phosphorylated S6 and 4EBP1) in non-immobilized (R) gastrocnemius [9]: stimulated mTORC1 in the non-immobilized muscle in all mice
- mTORC1 activity (phosphorylated S6 and 4EBP1) in immobilized (L*) gastrocnemius compared to fasted controls ([9]; 5 days immobilization, LRK = 1× (L-Leucine, L-Arginine) plus 0.1× L-Lysine): unable to increase mTORC1 activity in the immobilized (L*) gastrocnemius muscle in four of the 5 mice
- muscle protein synthesis (MPS) rate in gastrocnemius [10]: little difference between fasted rats and rats given leucine alone
